Laboratory results: PubChem BioAssay (NCI)
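Compound exposure: 48 hours, 5 concentrations, 96-well plates. At the TGI there is no net growth.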

Experiments:
Experiment in all cases: NCI tumour cell line growth inhibition, 48 h
[1] = system: 786-0 renal
[2] = system: A549 NSCLC
[3] = system: ACHN renal
[4] = system: CAKI-1 renal
[5] = system: CCRF-CEM leukemia
[6] = system: DLD-1 colon
[7] = system: DMS 273 small cell lung
[8] = system: EKVX NSCLC
[9] = system: HCT-116 colon
[10] = system: HCT-15 colon
[11] = system: HL-60(TB) leukemia
[12] = system: HOP-92 NSCLC
[13] = system: HT29 colon
[14] = system: IGROV1 ovarian
[15] = system: K-562 leukemia
[16] = system: KM12 colon
[17] = system: KM20L2 colon
[18] = system: LOX IMVI melanoma
[19] = system: LXFL 529 NSCLC
[20] = system: M14 melanoma
[21] = system: M19-MEL melanoma
[22] = system: MALME-3M melanoma
[23] = system: MOLT-4 leukemia
[24] = system: NCI-H226 lung
[25] = system: NCI-H23 lung
[26] = system: NCI-H522 lung
[27] = system: OVCAR-3 ovarian
[28] = system: RPMI-8226 leukemia
[29] = system: RXF-631 renal
[30] = system: SF-268 CNS
[31] = system: SF-295 CNS
[32] = system: SF-539 CNS
[33] = system: SK-MEL-2 melanoma
[34] = system: SK-MEL-28 melanoma
[35] = system: SK-OV-3 ovarian
[36] = system: SN12C renal
[37] = system: SNB-19 CNS
[38] = system: SNB-75 CNS
[39] = system: SNB-78 CNS
[40] = system: SR leukemia
[41] = system: SW-620 colon
[42] = system: TK-10 renal
[43] = system: U251 CNS
[44] = system: UACC-257 melanoma
[45] = system: UACC-62 melanoma
[46] = system: UO-31 renal
[47] = system: XF 498 CNS
[48] = system: A498 renal
[49] = system: COLO 205 colon
[50] = system: DMS 114 small cell lung
[51] = system: HCC-2998 colon
[52] = system: HOP-62 NSCLC
[53] = system: NCI-H460 lung
[54] = system: OVCAR-4 ovarian
[55] = system: OVCAR-5 ovarian
[56] = system: OVCAR-8 ovarian
[57] = system: RXF 393 renal
[58] = system: SK-MEL-5 melanoma
[59] = system: HOP-18 NSCLC

Measured: TGI

COC(=O)CCC(=O)C(C#N)c1ccc(Cl)cc1Cl (configuration not stated)
not listed: [48] | [49] | [50] | [51] | [52] | [53] | [54] | [55] | [56] | [57] | [58] | [59]
> 100 µM: all other assays above

O=C(Nc1ccc(Cl)cc1Cl)/C(Cl)=C1/Sc2ccccc2NC1=O
85.9 µM: [38]
53.8 µM: [11]
66.4 µM: [9]
48.3 µM: [33]
49 µM: [26]
79.2 µM: [24]
40.5 µM: [47]
83.4 µM: [5]
51.6 µM: [12]
65.9 µM: [28]
45.8 µM: [58]
77.9 µM: [22]
87 µM: [23]
77.2 µM: [46]
75.7 µM: [34]
80 µM: [50]
75.8 µM: [57]
78.9 µM: [3]
55 µM: [25]
80.4 µM: [35]
not listed: [7] | [13] | [16] | [27] | [29] | [31] | [40] | [44] | [59]
> 100 µM: all other assays above

COc1cc([C@@H]2c3cc4c(cc3[C@@H](NC(=O)c3ccc([N+](=O)[O-])cc3)C3COC(=O)[C@@H]32)OCO4)cc(OC)c1O (some centres not stated)
6.05 µM: [56]
4.86 µM: [38]
6.06 µM: [37]
34.8 µM: [57]
0.964 µM: [47]
6.43 µM: [10]
89 µM: [34]
4.89 µM: [22]
1.12 µM: [52]
59.6 µM: [44]
2.09 µM: [26]
1.31 µM: [23]
2.06 µM: [32]
3.54 µM: [7]
4.81 µM: [27]
1.46 µM: [25]
6.61 µM: [33]
1.58 µM: [3]
19 µM: [21]
5.77 µM: [30]
1.37 µM: [36]
40.2 µM: [12]
2.35 µM: [50]
1.82 µM: [24]
5.32 µM: [9]
76.2 µM: [55]
1.21 µM: [43]
5.86 µM: [18] | [42]
4.48 µM: [29]
6.55 µM: [8]
0.407 µM: [11]
10.4 µM: [49] | [46]
5.68 µM: [13]
1.4 µM: [1]
11.3 µM: [6]
2.04 µM: [45]
2.38 µM: [53]
8.42 µM: [4]
4.19 µM: [16]
3.9 µM: [48]
3.44 µM: [51] | [14]
1.89 µM: [35]
3.62 µM: [28]
75.5 µM: [39]
1.53 µM: [2]
4.21 µM: [41]
3.53 µM: [58]
11.5 µM: [31]
3.73 µM: [17]
not listed: [5] | [40]
> 100 µM: all other assays above

C=CCn1c(=S)sc2c(=O)[nH]cnc21
not listed: [24] | [28] | [29] | [34] | [57] | [59]
> 100 µM: all other assays above

COC(=O)c1c/c(=N\NC(=O)CC(=O)Nc2ccc(C)cc2)c2ccccc2o1
not listed: [29] | [51]
> 100 µM: all other assays above

Cn1c(-c2ccccc2)c/c(=N\NS(C)(=O)=O)c2cc(S(=O)(=O)O)ccc21
not listed: [29] | [48]
> 100 µM: all other assays above

FC(F)(F)c1ccccc1C=NC12CC3CC(CC(C3)C1)C2
12.1 µM: [46]
not listed: [5] | [6] | [12] | [19] | [26] | [29] | [45] | [59]
> 100 µM: all other assays above
